Laboratory results reported in patent publication US20260092061A1, “COMPOUNDS FOR TARGETED PROTEIN DEGRADATION” (Amphista Therapeutics Limited, priority 2022, published 2026).

How the values were obtained:
BRD9 [1] = molecular target: T1, BRD9 (Homo sapiens, UniProt Q9H8M2); test: BRD9 degradation, HiBiT-BRD9 KI HEK293 (LgBiT) cells, NanoGlo Lytic Endpoint assay (Assay Protocol 1); type: cell-based; settings: BRD9 degradation; for Dmax at 1 µM: 1 μM compound at 6 h of treatment, read-out: Assay 1 Dmax
T1 sequence (Q9H8M2 1-597): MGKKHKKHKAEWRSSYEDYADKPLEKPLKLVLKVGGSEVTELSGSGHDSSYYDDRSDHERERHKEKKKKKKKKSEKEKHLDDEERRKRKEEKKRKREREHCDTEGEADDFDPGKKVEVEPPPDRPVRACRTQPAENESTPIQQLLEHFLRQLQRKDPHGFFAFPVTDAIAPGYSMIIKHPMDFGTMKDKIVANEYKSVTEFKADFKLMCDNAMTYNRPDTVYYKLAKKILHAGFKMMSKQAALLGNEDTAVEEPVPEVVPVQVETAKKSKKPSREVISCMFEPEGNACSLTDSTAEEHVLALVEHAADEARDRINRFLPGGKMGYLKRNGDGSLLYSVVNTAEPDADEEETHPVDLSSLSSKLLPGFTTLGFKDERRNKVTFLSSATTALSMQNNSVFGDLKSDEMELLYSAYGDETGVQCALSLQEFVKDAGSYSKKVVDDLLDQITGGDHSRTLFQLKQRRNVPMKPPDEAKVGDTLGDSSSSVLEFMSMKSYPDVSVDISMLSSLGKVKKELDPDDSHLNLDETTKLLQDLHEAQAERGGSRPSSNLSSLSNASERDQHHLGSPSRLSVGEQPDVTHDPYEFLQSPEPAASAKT
Procedure: HiBiT-BRD9 KI HEK293 (LgBiT) Cells (Promega CS3023412) were seeded at 8000 cells per well (38 μL) in sterile white bottom 384 well plates (Invitrogen 164610 or Greiner 781080) and incubated overnight at 37° C. with 5% CO2. The next day, compounds were prepared at 1000× final concentration in DMSO and diluted 1:100 in media (DMEM PAN Biotech P04-03550+10% FBS ATCC 302025). 4 μL compound was added to each well of the cell plate and incubated for 6 h at 37° C. with 5% CO2 BRD9 expression was quantified using the NanoGlo Lytic Endpoint assay (Promega N3050). The lytic buffer was equilibrated to room temperature for 10-15 min before lytic reagent was prepared by adding substrate (1:50) and LgBit protein (1:100) in lytic buffer. 40 μL lytic reagent mix was added to each well of the cel plate and plates were centrifuged briefly at ˜50g. Plates were incubated with shaking (350 RPM) for 12-24 min before reading using the LUM plus module of a BMG Pherastar FSX. Data was analysed using Dotmatics software and % BRD9 remaining was calculated by normalisation to average data from high and low control wells (DMSO treated cels and no cells respectively).

BRD9 [2] = molecular target: T1, BRD9; test: Degradation of BRD9 (IF), immunofluorescence in MV4-11 cells, 24 hours (Assay Protocol 2); type: cell-based; design: A suspension of MV4-11 cells (ATCC CRL-9591) was prepared; host or cells: MV4-11; settings: BRD9 degradation; for DC50: Assay protocol 2, read-out: DC50; for Dmax: MV4-11, Assay protocol 2, read-out: Dmax
In short: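 % BRD9 remaining, scaled between DMSO (high) and 100 nM CFT-8634 (low) control wells, derives from mean Alexa 647 contrast in central nuclei by high-content imaging. MV4-11 cells had 24 h compound exposure at 37° C. before PFA fixation, Triton permeabilisation and anti-BRD9 E4Q3F immunostaining.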

[3] = HEK293, Table 2, Assay Protocol 1
[4] = Table 2, Assay Protocol 1, 6 h of treatment, read-out: Assay 1 DC50

Compound | Dmax at 1 µM (BRD9 [1]; [3]) [%] | DC50 (BRD9 [1]; [4]) [µM] | also measured
COc1cc(-c2cn(C)c(=O)c(C)c2C)cc(OC)c1CN1CCN(C(=O)CCc2ccc3c(c2)C(C)N(C(=O)/C(C#N)=C/c2nccs2)CC3)CC1 (mixture of isomers) [Compound A55, (E/Z)-2-(7(3-(4-(2,6-dimethoxy-4-(1,4,5-trimethyl-6-oxo-1,6-dihydropyridin-3-yl)benzyl)piperazin-1-yl)-3-oxopropyl)-1-methyl-1,2,3,4-tetrahydroisoquinoline-2-carbonyl)-3-(thiazol-2-yl)acrylonitrile] | 40 to 70 | 0.01 to 0.025 | –
COc1cc(-c2cn(C)c(=O)c3cnccc23)cc(OC)c1CN(C)Cc1ccc2c(c1)C(C)N(C(=O)/C(C#N)=C/C(C)(C)C)CC2 (mixture of isomers) [Compound A47, (E/Z)-2-[7-[[2,6-dimethoxy-4-(2-methyl-1-oxo-2,7-naphthyridin-4-yl)phenylmethyl-methyl-amino]methyl]-1-methyl-3,4-dihydro-1H-isoquinoline-2-carbonyl]-4,4-dimethyl-pent-2-enenitrile] | 40 to 70 | 0.01 to 0.025 | –
COc1cc(-c2cn(C)c(=O)c(C)c2C)cc(OC)c1CN1CC2CCC(C1)N2Cc1cccc2c1CCN(C(=O)/C(C#N)=C/c1cccc(Br)n1)C2C (mixture of isomers) [Compound B8, (E/Z)-3-(6-bromopyridin-2-yl)-2-(5-((3-(2,6-dimethoxy-4-(1,4,5-trimethyl-6-oxo-1,6-dihydropyridin-3-yl)benzyl)-3,8-diazabicyclo[3.2.1]octan-8-yl)methyl)-1-methyl-1,2,3,4-tetrahydroisoquinoline-2-carbonyl)acrylonitrile] | – | – | DC50 (BRD9 [1]; Assay protocol 1, read-out: DC50): 0.00125 to 0.01 µM; Dmax (BRD9 [1]; HEK293, Assay protocol 1, read-out: Dmax): 40 to 70%
COc1cc(-c2cn(C)c(=O)c(C)c2C)cc(OC)c1CN1CCN(Cc2cccc3c2CCN(C(=O)/C(C#N)=C/C2CC2)C3C)CC1 (mixture of isomers) [Compound A44] | 40 to 70 | 0.00125 to 0.01 | –
COc1cc(-c2cn(C)c(=O)c3cnccc23)cc(OC)c1CN1CCN(Cc2cccc3c2CCN(C(=O)/C(C#N)=C\c2nc(C)c(C)s2)C3C)CC1 (mixture of isomers) [Compound A13, (E/Z)-2-(5-((4-(2,6-dimethoxy-4-(2-methyl-1-oxo-1,2-dihydro-2,7-naphthyridin-4-yl)benzyl)piperazin-1-yl)methyl)-1-methyl-1,2,3,4-tetrahydroisoquinoline-2-carbonyl)-3-(4,5-dimethylthiazol-2-yl)acrylonitrile] | 40 to 70 | 0.00125 to 0.01 | –
COc1cc(-c2cn(C)c(=O)c(C)c2C)cc(OC)c1CN1CCN(Cc2cccc3c2CCN(C(=O)/C(C#N)=C/c2ccn(C)n2)C3C)CC1 (stereo not shown) [Compound A8, (E)-2-(5-((4-(2,6-dimethoxy-4-(1,4,5-trimethyl-6-oxo-1,6-dihydropyridin-3-yl)benzyl)piperazin-1-yl)methyl)-1-methyl-1,2,3,4-tetrahydroisoquinoline-2-carbonyl)-3-(1-methyl-1H-pyrazol-3-yl)acrylonitrile] | 40 to 70 | 0.01 to 0.025 | –
COc1cc(-c2cn(C)c(=O)c3cnccc23)cc(OC)c1CN1CCN(Cc2cccc3c2CCN(C(=O)/C(C#N)=C\c2ccon2)C3C)CC1 (mixture of isomers) [Compound A11, (E/Z)-2-(5-((4-(2,6-dimethoxy-4-(2-methyl-1-oxo-1,2-dihydro-2,7-naphthyridin-4-yl)benzyl)piperazin-1-yl)methyl)-1-methyl-1,2,3,4-tetrahydroisoquinoline-2-carbonyl)-3-(isoxazol-3-yl)acrylonitrile] | 40 to 70 | 0.00125 to 0.01 | –
CCCC(c1ccc(CCC(=O)N2CCN(Cc3c(OC)cc(-c4cn(C)c(=O)c(C)c4C)cc3OC)CC2)cc1)N(C)C(=O)/C(C#N)=C/c1nccs1 (mixture of isomers) [Compound A58, (E/Z)-2-cyano-N-(1-(4-(3-(4-(2,6-dimethoxy-4-(1,4,5-trimethyl-6-oxo-1,6-dihydropyridin-3-yl)benzyl)piperazin-1-yl)-3-oxopropyl)phenyl)butyl)-N-methyl-3-(thiazol-2-yl)acrylamide] | 40 to 70 | 0.00125 to 0.01 | –
COc1cc(-c2cn(C)c(=O)c3cnccc23)cc(OC)c1CN1CCN(Cc2cccc3c2CCN(C(=O)/C(C#N)=C\c2nc(C)cs2)C3C)CC1 (mixture of isomers) [Compound A9, (E/Z)-2-(5-((4-(2,6-dimethoxy-4-(2-methyl-1-oxo-1,2-dihydro-2,7-naphthyridin-4-yl)benzyl)piperazin-1-yl)methyl)-1-methyl-1,2,3,4-tetrahydroisoquinoline-2-carbonyl)-3-(4-methylthiazol-2-yl)acrylonitrile] | 40 to 70 | < 0.00125 | –
COc1cc(-c2cn(C)c(=O)c3cnccc23)cc(OC)c1CN1CCN(Cc2cccc3c2CCN(C(=O)/C(C#N)=C\C(C)C)C3C)CC1 (mixture of isomers) [Compound A19, (E/Z)-2-(5-((4-(2,6-dimethoxy-4-(2-methyl-1-oxo-1,2-dihydro-2,7-naphthyridin-4-yl)benzyl)piperazin-1-yl)methyl)-1-methyl-1,2,3,4-tetrahydroisoquinoline-2-carbonyl)-4-methylpent-2-enenitrile] | 40 to 70 | 0.00125 to 0.01 | –
COc1cc(-c2cn(C)c(=O)c3ccsc23)cc(OC)c1CN1CCN(Cc2cccc3c2CCN(C(=O)/C(C#N)=C/c2cccc(Br)n2)C3C)C2(CC2)C1 (mixture of isomers) [Compound B108, (E/Z)-3-(6-bromopyridin-2-yl)-2-(5-((7-(2,6-dimethoxy-4-(5-methyl-4-oxo-4,5-dihydrothieno[3,2-c]pyridin-7-yl)benzyl)-4,7-diazaspiro[2.5]octan-4-yl)methyl)-1-methyl-1,2,3,4-tetrahydroisoquinoline-2-carbonyl)acrylonitrile] | – | – | DC50 (BRD9 [2]): < 0.00125 µM; Dmax (BRD9 [2]): > 75%
COc1cc(-c2cn(C)c(=O)c(C)c2C)cc(OC)c1CN1CCC2(CC1)CCN(c1cccc3c1CCN(C(=O)/C(C#N)=C/C(C)(C)C)C3C)C2 (stereo not shown) [Compound B63, (E2Z)-2-(5-(8-(2,6-dimethoxy-4-(1,4,5-trimethyl-6-oxo-1,6-dihydropyridin-3-yl)benzyl)-2,8-diazaspiro[4.5]decan-2-yl)-1-methyl-1,2,3,4-tetrahydroisoquinoline-2-carbonyl)-4,4-dimethylpent-2-enenitrile] | – | – | DC50 (BRD9 [2]): 0.00125 to 0.01 µM; Dmax (BRD9 [2]): 40 to 70%
COc1cc(-c2cn(C)c(=O)c(C)c2C)cc(OC)c1CN1CCN(Cc2cccc3c2CCN(C(=O)/C(C#N)=C/C(C)(C)F)[C@@H]3C)C2(CC2)C1 (single isomer, unassigned) [Compound C20, (E/Z)-2-(5-((7-(2,6-dimethoxy-4-(1,4,5-trimethyl-6-oxo-1,6-dihydropyridin-3-yl)benzyl)-4,7-diazaspiro[2.5]octan-4-yl)methyl)-1-methyl-1,2,3,4-tetrahydroisoquinoline-2-carbonyl)-4-fluoro-4-methylpent-2-enenitrile] | – | – | DC50 (BRD9 [2]): < 0.00125 µM; Dmax (BRD9 [2]): > 75%
COc1cc(-c2cn(C)c(=O)c(C)c2C)cc(OC)c1CN1CCN(Cc2ccc3c(c2)[C@H](C(C)C)N(C(=O)/C(C#N)=C/C(C)(C)C)CC3)C2(CC2)C1 (single isomer, unassigned) [Compound C87, (E/Z)-2-(7-((7-(2,6-dimethoxy-4-(1,4,5-trimethyl-6-oxo-1,6-dihydropyridin-3-yl)benzyl)-4,7-diazaspiro[2.5]octan-4-yl)methyl)-1-isopropyl-1,2,3,4-tetrahydroisoquinoline-2-carbonyl)-4,4-dimethylpent-2-enenitrile] | – | – | DC50 (BRD9 [2]): 0.01 to 0.025 µM; Dmax (BRD9 [2]): 70 to 75%
